Measured values reported in patent US12104178B2, “DHFR tunable protein regulation” (Obsidian Therapeutics, Inc., priority 2017, dated 2024).

Experiments:
human donor T cells [1] = assay: Shield-1 concentration and time dependent IL12 p40 in human T cells (Tables 94-96); assay type: cell-based; parameters: IL12 levels in T cells (IL12 p40, MSD): unit not given beside the values; settings: for EC50: IL12 p40 from OT-IL12-026 T cells; for IL12 levels in T cells (IL12 p40, MSD): OT-IL12-026 T cells, 24 hours
Procedure: On day 1, cells were transduced with lentivirus for construct OT-IL12-026 at MOIs of 40, 13.3 or 4.4. […] Cells were then plated at 100,000 per well on U-bottom 96-well plate. On day 14, cells were treated for 24 hours with varying concentrations of Shield-1 or vehicle control. On day 15, the supernatant was harvested and IL12 p40 levels were measured by MSD assay. In the Table 94, MOI stands for multiplicity of infection.
A time course experiment was also performed using Shield-1 at a dose of 1 μM. T cells transduced with OT-IL12-020, OT-IL12-026 or empty vector were treated with Shield-1 or vehicle control for 4, 8, 16 and 24 hours. IL12 p40 levels were measured using MSD assay. The stabilization ratio was measured as the ratio of expression of IL12 in the presence of the stimulus to the expression in the absence of the stimulus.

HCT-116 = assay: DD regulated IL2, IL2 ELISA with Shield-1 dose; assay type: cell-based, human; settings: read-out: EC50 of Shield-1, IL2 ELISA (FIG. 58); HCT-116 transduced with OT-IL2-001
Source text: OT-IL2-001 (FKBP) was transduced into human colorectal carcinoma line, HCT-116.

human donor T cells [2] = assay: Shield-1 concentration and time dependent IL12 p40 in human T cells (Tables 94-96); assay type: cell-based; settings: 24 h

CC[C@H](C(=O)N1CCCC[C@H]1C(=O)O[C@H](CCc1ccc(OC)c(OC)c1)c1cccc(OCCN2CCOCC2)c1)c1cc(OC)c(OC)c(OC)c1 [Shield-1]
EC50 (human donor T cells [1]; MOI 4.4): 84 nM | EC50 (human donor T cells [1]; MOI 13.3): 94 nM | EC50 (human donor T cells [1]; MOI 40): 130 nM | IL12 levels in T cells (IL12 p40, MSD) (human donor T cells [1]; MOI = 4.4, Shield-1 0.1 nM): 49.44 | IL12 levels in T cells (IL12 p40, MSD) (human donor T cells [1]; MOI = 4.4, Shield-1 1 nM): 50.44 | IL12 levels in T cells (IL12 p40, MSD) (human donor T cells [1]; MOI = 4.4, Shield-1 5 nM): 50.44 | IL12 levels in T cells (IL12 p40, MSD) (human donor T cells [1]; MOI = 4.4, Shield-1 10 nM): 178.18 | IL12 levels in T cells (IL12 p40, MSD) (human donor T cells [1]; MOI = 4.4, Shield-1 50 nM): 357.11 | IL12 levels in T cells (IL12 p40, MSD) (human donor T cells [1]; MOI = 4.4, Shield-1 100 nM): 710.56 | IL12 levels in T cells (IL12 p40, MSD) (human donor T cells [1]; MOI = 4.4, Shield-1 500 nM): 1284.95 | IL12 levels in T cells (IL12 p40, MSD) (human donor T cells [1]; MOI = 4.4, Shield-1 1000 nM): 1152.28 | IL12 levels in T cells (IL12 p40, MSD) (human donor T cells [1]; MOI = 4.4, Shield-1 2000 nM): 1071.54 | IL12 levels in T cells (IL12 p40, MSD) (human donor T cells [1]; MOI = 13.3, Shield-1 0.1 nM): 48.10 | IL12 levels in T cells (IL12 p40, MSD) (human donor T cells [1]; MOI = 13.3, Shield-1 1 nM): 48.61 | IL12 levels in T cells (IL12 p40, MSD) (human donor T cells [1]; MOI = 13.3, Shield-1 5 nM): 49.54 | IL12 levels in T cells (IL12 p40, MSD) (human donor T cells [1]; MOI = 13.3, Shield-1 10 nM): 220.08 | IL12 levels in T cells (IL12 p40, MSD) (human donor T cells [1]; MOI = 13.3, Shield-1 50 nM): 420.72 | IL12 levels in T cells (IL12 p40, MSD) (human donor T cells [1]; MOI = 13.3, Shield-1 100 nM): 972.56 | IL12 levels in T cells (IL12 p40, MSD) (human donor T cells [1]; MOI = 13.3, Shield-1 500 nM): 1307.70 | IL12 levels in T cells (IL12 p40, MSD) (human donor T cells [1]; MOI = 13.3, Shield-1 1000 nM): 1559.43 | IL12 levels in T cells (IL12 p40, MSD) (human donor T cells [1]; MOI = 13.3, Shield-1 2000 nM): 1577.99 | IL12 levels in T cells (IL12 p40, MSD) (human donor T cells [1]; MOI = 40, Shield-1 0.1 nM): 88.30 | IL12 levels in T cells (IL12 p40, MSD) (human donor T cells [1]; MOI = 40, Shield-1 1 nM): 80.07 | IL12 levels in T cells (IL12 p40, MSD) (human donor T cells [1]; MOI = 40, Shield-1 5 nM): 88.83 | IL12 levels in T cells (IL12 p40, MSD) (human donor T cells [1]; MOI = 40, Shield-1 10 nM): 374.90 | IL12 levels in T cells (IL12 p40, MSD) (human donor T cells [1]; MOI = 40, Shield-1 50 nM): 608.85 | IL12 levels in T cells (IL12 p40, MSD) (human donor T cells [1]; MOI = 40, Shield-1 100 nM): 1293.01 | IL12 levels in T cells (IL12 p40, MSD) (human donor T cells [1]; MOI = 40, Shield-1 500 nM): 1861.36 | IL12 levels in T cells (IL12 p40, MSD) (human donor T cells [1]; MOI = 40, Shield-1 1000 nM): 2346.15 | IL12 levels in T cells (IL12 p40, MSD) (human donor T cells [1]; MOI = 40, Shield-1 2000 nM): 2330.88 | EC50 (HCT-116): 50 nM | Shield-1 concentration at which viability was reduced (human donor T cells [2]): greater than 5 μM
